In paper PMC6523382 (Pharmaceutics, 2019):
Like-named read-outs stand apart in the source and are kept apart here. One block for each molecule: values may come before it.

Key:
[1] = Pharmacokinetics of metformin after oral administration in rats; conditions: metformin 50 mg/kg PO, rat; for AUC(0-t): AUC24h
Procedure: (§1) Aliquots of plasma (20 µL) and urine (50 µL) samples were vigorously mixed with 200 μL methanol containing 20 ng/mL propranolol (internal standard, IS) for 10 min.
(§2) Samples were eluted through a Synergy Polar RP column (2.0 mm × 150 mm, 4 µm particle size, Phenomenex, Torrence, CA, USA) using a mobile phase that consisted of methanol and water (70:30, v/v) with 0.1% formic acid at a flow rate of 0.2 mL/min. […] Pharmacokinetic parameters were evaluated from plasma concentration versus time curves by using non-compartment analysis of WinNonlin (version 5.1; Pharsights, Cary, NC, USA).

[2] = parameters: method as in PMID 26869413; conditions: cited from earlier work
[3] = Pharmacokinetics of metformin after intravenous injection in rats; conditions: rat; for Ae24h (fraction of dose excreted in urine for 24 h as parent form) / AUC(0-t) / AUC(0-inf) / MRT: metformin […] IV; for AUC(0-t) / AUC(0-inf) / C0 / MRT: plasma, iv; for AUC(0-t): AUC24h; for C0: C0, metformin […] IV
Procedure: An aliquot (50 µL) of urine samples was stored at −80 °C for the analysis.
as §1, §2

[4] = tested on: rat duodenal, jejunal, and ileal segments; assay: Intestinal absorptive permeability in Ussing chambers; assay type: in vitro ADME
Procedure: [31]. Briefly, duodenum, jejunum, and ileum segments were dissected and washed as described earlier. The duodenal, jejunal, and ileal segments mounted on the inserts of the Ussing chambers ([…], Holliston, MA, USA) were acclimatized with HBSS for 30 min. […] Aliquots (400 μL) of HBSS in the basal side were withdrawn at 0, 30, 60, 90, and 120 min, and the withdrawn samples were compensated with an equal volume of fresh, preheated HBSS. Carbogen gas (5% CO2/ 95% O2) was bubbled into the Ussing chambers at a rate of 150 drops/min during the experiment. […] For the generation of Na^+ gradient, rat duodenal, jejunal, and ileal segments mounted on the inserts of the Ussing chamber were pretreated with Na^+ free media comprising 10 mM HEPES, 5 mM Tris, 140 mM choline chloride, 2 mM KCl, 1 mM CaCl2, and 1 mM MgCl2 (pH7.4) for 30 min. […] A 100 μL aliquot of samples was transferred to 96-well plates and the fluorescence of Lucifer yellow was read directly in a fluorescence plate reader using a 485 nm excitation and an emission filter of 535 nm.

[5] = Ginsenoside concentrations in rat plasma after oral RGE; assay type: in vivo
Procedure: Ginsenoside concentrations in RGE and plasma samples were analyzed using an Agilent 6470 triple quadrupole liquid chromatography–tandem mass spectrometry (LC–MS/MS) system (Agilent, Wilmington, DE, USA) equipped with an Agilent 1260 high performance liquid chromatography (HPLC) system, according to a previously published method. […] Aliquots (20 μL) of the supernatant were injected into the LC–MS/MS system for the analysis of ginsenosides. […] The solvent gradient program was as follows: (1) 0–0.5 min, 72% B; (2) 0.5–8.5 min, 84% B; (3) 8.5–19.0 min, 72%.
Quantification of a separated ginsenoside peak was performed at m/z 1131.6 → 365.1 for Rb1 (TR (retention time) 5.0 min), m/z 1101.6 → 335.1 for Rb2 (TR 6.4 min) and Rc (TR 5.2 min), m/z 969.9 → 789.5 for Rd (TR 8.2 min) and Re (TR 1.6 min), m/z 824 → 643.6 for Rg1 (TR = 1.7 min), m/z 807.5 → 365.1 for Rg3 (TR 12.3 min), m/z 661.5 → 203.1 for Rh1 (TR 3.2 min) and F1 (TR 3.9 min), m/z 587.4 → 407.4 for Rh2 (TR 11.5 min), m/z 807.5 → 627.5 for F2 (TR 5.3 min), m/z 645.5 → 203.1 for compound K (TR 9.5 min), m/z 425.4 → 109.1 for protopanaxadiol (TR 18.8 min), m/z 441.3 → 109.1 for protopanaxatriol (TR 2.9 min), and m/z 336.1 → 320 for berberine (internal standard, IS) (TR 3.7 min) in the positive ionization mode with collision energy (CE) of 15–65 eV.

[6] = plasma, po, 50 mg/kg, 1WRA of RGE 1.5 g/kg/day
[7] = plasma, po, 50 mg/kg, SA of RGE 1.5 g/kg

Molecule: CC(C)=CCC[C@](C)(O[C@@H]1O[C@H](CO[C@@H]2OC[C@H](O)[C@H](O)[C@H]2O)[C@@H](O)[C@H](O)[C@H]1O)[C@H]1CC[C@]2(C)[C@@H]1[C@H](O)C[C@@H]1[C@@]3(C)CC[C@H](O[C@@H]4O[C@H](CO)[C@@H](O)[C@H](O)[C@H]4O[C@@H]4O[C@H](CO)[C@@H](O)[C@H](O)[C@H]4O)C(C)(C)[C@@H]3CC[C@]12C [Rb2]
Concentration in rat plasma, SA ([5]; 2 h after single oral administration of RGE (1.5 g/kg)): 6.3 ± 2.1 ng/mL | Concentration in rat plasma, 1WRA ([5]; 24 h after last dose of 1-week repeated oral RGE (1.5 g/kg/day)): 29.4 ± 1.5 ng/mL

Molecule: Lucifer yellow
Intestinal absorptive permeability (Papp), effect of RGE [4]: not altered

More lines, main results first:

Ae24h (fraction of dose excreted in urine for 24 h as parent form) ([1]; 1WRA of RGE 1.5 g/kg/day): 66.29 ± 10.57 % | Tmax ([1]; 1WRA of RGE 1.5 g/kg/day): 2.00 ± 0.01 h | Ae24h (fraction of dose excreted in urine for 24 h as parent form) ([1]; Control): 54.56 ± 3.26% | Ae24h (fraction of dose excreted in urine for 24 h as parent form) ([1]; SA of RGE 1.5 g/kg): 53.04 ± 3.69% | AUC(0-t) [1, 6]: 57600 ± 4990 ng·h/mL | AUC(0-t) ([1]; plasma, po, 50 mg/kg, Control): 44300 ± 8310 ng·h/mL | AUC(0-t) [1, 7]: 45200 ± 11100 ng·h/mL | AUC(0-inf) [1, 6]: 59000 ± 5170 ng·h/mL | AUC(0-inf) ([1]; plasma, po, 50 mg/kg, Control): 44800 ± 8090 ng·h/mL | AUC(0-inf) [1, 7]: 45700 ± 11200 ng·h/mL | Cmax [1, 6]: 9900 ± 1490 ng/mL | Cmax ([1]; plasma, po, 50 mg/kg, Control): 6310 ± 1680 ng/mL | Cmax [1, 7]: 6470 ± 2000 ng/mL | MRT [1, 6]: 4.64 ± 0.68 h | MRT ([1]; plasma, po, 50 mg/kg, Control): 4.85 ± 0.58 h | MRT [1, 7]: 4.69 ± 0.33 h | Tmax ([1]; plasma, po, 50 mg/kg, Tmax, Control): 2.4 ± 0.89 h | Ae24h (fraction of dose excreted in urine for 24 h as parent form) ([3]; 1WRA of RGE 1.5 g/kg/day): 79.56 ± 5.02% | Ae24h (fraction of dose excreted in urine for 24 h as parent form) ([3]; Control): 80.07 ± 4.93% | Ae24h (fraction of dose excreted in urine for 24 h as parent form) ([3]; SA of RGE 1.5 g/kg): 83.52 ± 5.72% | AUC(0-t) ([3]; 1WRA of RGE 1.5 g/kg/day): 980 ± 362 ng·h/mL | AUC(0-t) ([3]; SA of RGE 1.5 g/kg): 1050 ± 237 ng·h/mL | AUC(0-inf) ([3]; 1WRA of RGE 1.5 g/kg/day): 986 ± 364 ng·h/mL | AUC(0-inf) ([3]; SA of RGE 1.5 g/kg): 1050 ± 239 ng·h/mL | C0 ([3]; 1WRA of RGE 1.5 g/kg/day): 1760 ± 438 ng/mL | C0 ([3]; SA of RGE 1.5 g/kg): 1670 ± 623 ng/mL | MRT ([3]; 1WRA of RGE 1.5 g/kg/day): 0.85 ± 0.35 h | MRT ([3]; SA of RGE 1.5 g/kg): 0.81 ± 0.17 h
Molecule: CN(C)C(=N)N=C(N)N [metformin, Metformin]
Fraction of dose absorbed in the duodenum [2]: Approximately 20% | Fraction of dose absorbed in the jejunum and ileum [2]: 60%

Intestinal absorptive permeability (Papp), effect of RGE ([4]; 50 µM, duodenum, jejunum, ileum, SA and 1WRA groups vs control): not affected
Molecule: CO[C@@H]([C@H](O)[C@H](O)CO)[C@@H](O)C=O [3-O-methyl-D-glucose]

concentration at 2 h ([5]; rat, plasma, 2 h after single oral administration of RGE (1.5 g/kg), read-out: Concentration in rat plasma, SA): 14.3 ± 2.7 ng/mL | concentration at 24 h ([5]; rat, plasma, 24 h after last dose of 1-week repeated oral RGE (1.5 g/kg/day), read-out: Concentration in rat plasma, 1WRA): 35.7 ± 1.9 ng/mL
Molecule: CC(C)=CCC[C@](C)(O[C@@H]1O[C@H](CO[C@@H]2O[C@H](CO)[C@@H](O)[C@H](O)[C@H]2O)[C@@H](O)[C@H](O)[C@H]1O)[C@H]1CC[C@]2(C)[C@@H]1[C@H](O)C[C@@H]1[C@@]3(C)CC[C@H](O[C@@H]4O[C@H](CO)[C@@H](O)[C@H](O)[C@H]4O[C@@H]4O[C@H](CO)[C@@H](O)[C@H](O)[C@H]4O)C(C)(C)[C@@H]3CC[C@]12C [Rb1]
